Test results reported in article PMC6804229, “Cytotoxic Xanthones from Hypericum stellatum, an Ethnomedicine in Southwest China” (Molecules, 2019).
Read-outs that look alike come from different tables or passages of the source.

What was measured:
[1] = tested on: five human liver carcinoma cell lines; test: cells; type: cell-based
Procedure: The incubation continued for another 1–4 h.

[2] = tested on: LO2
Text: (§1) Considering its purported medicinal value for the treatment of liver disease, we tested the cytotoxic activities of ten xanthones isolated from H. stellatum against five human liver carcinoma cell lines (SMMC-7721, Huh-7, HepG2, SK-HEP-1, PLC/PRF/5), as well as the immortalized non-cancerous human liver cell (LO2) by the MTS method, in vitro, with cisplatin (CAS No. 15663-27-1, Meilunbio, Dalian, China) and Taxol (CAS No. 33069-62-4, Meilunbio, Dalian, China) as positive controls.
(§2) The isolated compounds were tested in vitro for their cytotoxicity to five human liver carcinoma cell lines (SMMC-7721, Huh-7, HepG2, SK-HEP-1, PLC/PRF/5) and the immortalized noncancerous human liver cell (LO2), in a 3-(4,5-dimethylthiazol-2-yl)-5(3-carboxymethoxyphenyl)2-(4-sulfopheny)-2H-tetrazolium (MTS; Promega, Beijing, China) assay [31]. In general, cells in the log phase of their cycle were seeded in 96-well plates (4000–5000 cells/well, NEST Biotechnology, Wuxi, China) in a 100-μL volume. After 12 h of incubation at 37 °C, each test compound was added. The cancer cell lines were exposed to the test compounds at five concentrations (0.064, 0.32, 1.6, 8, and 40 μM) in triplicate with cisplatin (Meilunbio, CAS No. 15663-27-1) and Taxol (Meilunbio, CAS No. 33069-62-4) as the positive control. After incubation for 48 h at 37 °C, 20 μL of MTS solution and 100 μL DMEM were added into the well. The incubation continued for another 1–4 h.

[3] = tested on: Huh-7; test: MTS cytotoxicity assay, Huh-7
Procedure: as §2

[4] = tested on: HepG2; test: MTS cytotoxicity assay, HepG2
Procedure: as §2

[5] = tested on: SK-HEP-1; test: MTS cytotoxicity assay, SK-HEP-1
Procedure: as §2

[6] = tested on: SMMC-7721; test: MTS cytotoxicity assay, SMMC-7721
Procedure: as §2

[7] = tested on: PLC/PRF/5; test: MTS cytotoxicity assay, PLC/PRF/5
Procedure: as §2

[8] = tested on: LO2; test: cells; conditions: Homo sapiens, L02, 48 h, read-out: IC50 ± SD
Text: as §1, §2

[9] = tested on: SMMC-7721
Procedure: as §2

[10] = tested on: Huh-7
Procedure: as §2

[11] = tested on: HepG2
Procedure: as §2

[12] = tested on: SK-HEP-1
Procedure: as §2

[13] = tested on: PLC/PRF/5
Procedure: as §2

[14] = tested on: PKC; parameters: method as in PMID 26245668; conditions: synthesized isojacareubin; cited from earlier work
[15] = range over five human liver carcinoma cell lines, read-out: IC50 value range
[16] = read-out: IC50 ± SD, LO2 human normal liver cell line, MTS, 48 h, mean of three independent experiments
[17] = read-out: IC50 ± SD, Huh-7, MTS, 48 h, mean of three independent experiments
[18] = read-out: IC50 ± SD, HepG2, MTS, 48 h, mean of three independent experiments
[19] = read-out: IC50 ± SD, SK-HEP-1, MTS, 48 h, mean of three independent experiments
[20] = read-out: IC50 ± SD, SMMC-7721, MTS, 48 h, mean of three independent experiments
[21] = read-out: IC50 ± SD, PLC/PRF/5, MTS, 48 h, mean of three independent experiments
[22] = Homo sapiens, Huh-7, 48 h, read-out: IC50 ± SD
[23] = Homo sapiens, HepG2, 48 h, read-out: IC50 ± SD
[24] = Homo sapiens, HepG2, read-out: cytotoxic activity (class)
[25] = Homo sapiens, SK-HEP1, 48 h, read-out: IC50 ± SD
[26] = Homo sapiens, SMMC-7721, 48 h, read-out: IC50 ± SD
[27] = Homo sapiens, PLC-PRF-5, 48 h, read-out: IC50 ± SD
[28] = Homo sapiens, SMMC-7721, read-out: cytotoxic activity (class)
[29] = Homo sapiens, SK-HEP1, read-out: cytotoxic activity (class)
[30] = Homo sapiens, Huh-7, read-out: cytotoxic activity (class)
[31] = Homo sapiens, PLC-PRF-5, read-out: cytotoxic activity (class)

Row | Compound | IC50 [8] [µM] | IC50 [3, 22] [µM] | IC50 [4, 23] [µM] | IC50 [4, 24] [µM] | IC50 [5, 25] [µM] | IC50 [6, 26] [µM] | IC50 [7, 27] [µM] | other results
1 | N.N.[Cl][Pt][Cl] [Cisplatin, cisplatin, reference compound] |  |  |  |  |  |  |  | IC50 [1, 15]: 4.47 to 20.6 µM; IC50 [2, 16]: 13.9 ± 0.87 µM; IC50 [3, 17]: 16 ± 0.95 µM; IC50 [4, 18]: 10.3 ± 0.5 µM; IC50 [5, 19]: 20.6 ± 1.03 µM; IC50 [6, 20]: 4.47 ± 0.27 µM; IC50 [7, 21]: 10.7 ± 0.8 µM
2 | COc1cc2oc3ccccc3c(=O)c2cc1O [Compound 1, 2-hydroxy-3-methoxyxanthone] | 14.5 ± 0.95 | > 40 | 10.2 ± 0.12 | 10 to 40 | > 40 | > 40 | > 40 | 
3 | O=c1c2c(O)cccc2oc2cc(O)cc(O)c12 [Compound 2, 1,3,8-trihydroxyxanthone] | > 40 | > 40 | > 40 |  | > 40 | 15.2 ± 0.27 | > 40 | IC50 [6, 28]: 10 to 40 µM
4 | O=c1c2cc(O)c(O)cc2oc2cc(O)cc(O)c12 [Compound 3, 1,3,6,7-tetrahydroxylxanthone] |  | > 40 | > 40 |  | > 40 | > 40 | > 40 | 
5 | O=c1c2cc(O)ccc2oc2cc(O)cc(O)c12 [Compound 4, 1,3,7-trihydroxyxanthone] | > 40 | > 40 | 22.6 ± 1.43 | 10 to 40 | > 40 | > 40 | > 40 | 
6 | COc1cc(O)cc2oc3cc(O)c(O)cc3c(=O)c12 [Compound 5, 3,6,7-trihydroxy-1-methoxyxanthone] |  | > 40 | > 40 |  | > 40 | > 40 | > 40 | 
7 | COc1cc2oc3cc(O)cc(O)c3c(=O)c2cc1O [Compound 7, 1,3,7-trihydroxy-6-methoxyxanthone] | 12.1 ± 0.14 | > 40 | > 40 |  | 37.1 ± 0.97 | 28.2 ± 0.89 | > 40 | IC50 [5, 29]: 10 to 40 µM; IC50 [6, 28]: 10 to 40 µM
8 | C=C(C)[C@@H]1Cc2c(cc(O)c3c(=O)c4ccc(O)c(O)c4oc23)OC1C=C(C)C (some centres unmarked) [Compound 9, Hypxanthone B] | > 40 | 25.8 ± 2.04 | 11.93 ± 0.1 | 10 to 40 | > 40 | 8.26 ± 0.57 | 30.8 ± 0.38 | IC50 ([1]; Homo sapiens, read-out: cytotoxicity (class)): 10 to 40 µM; IC50 [3, 30]: 10 to 40 µM; IC50 [7, 31]: 10 to 40 µM
9 | C=C(C)C(CC=C(C)C)Cc1c(O)cc(O)c2c(=O)c3ccc(O)c(O)c3oc12 (centres unmarked) [Compound 10, calycinoxanthon D] | 12.2 ± 0.25 | 16.6 ± 0.24 | 21.33 ± 0.16 | 10 to 40 | 31.1 ± 2.67 | 6.27 ± 0.16 | 24.9 ± 0.46 | IC50 [3, 30]: 10 to 40 µM; IC50 [5, 29]: 10 to 40 µM; IC50 [7, 31]: 10 to 40 µM
10 | CC(=O)O[C@H]1C(=O)[C@@]2(C)[C@H]([C@H](OC(=O)c3ccccc3)[C@]3(O)C[C@H](OC(=O)[C@H](O)[C@@H](NC(=O)c4ccccc4)c4ccccc4)C(C)=C1C3(C)C)[C@]1(OC(C)=O)CO[C@@H]1C[C@@H]2O [Taxol, reference compound] | < 0.01 | 0.11 ± 0.011 | < 0.01 |  | < 0.01 | 0.18 ± 0.03 | < 0.01 | 
11 | isojacareubin [Compound 6] |  |  |  |  |  |  |  | IC50 [1, 15]: 1.41 to 11.8 µM; IC50 [9]: < 10 µM; IC50 [10]: < 10 µM; IC50 [11]: < 10 µM; IC50 [12]: < 10 µM; IC50 [13]: 10 to 40 µM; IC50 [2]: < 10 µM; IC50 [2, 16]: 2.03 ± 0.04 µM; inhibition of PKC [14]: potent inhibitor; IC50 [3, 17]: 9.09 ± 0.38 µM; IC50 [4, 18]: 2.4 ± 0.02 µM; IC50 [5, 19]: 9.2 ± 0.21 µM; IC50 [6, 20]: 1.41 ± 0.03 µM; IC50 [7, 21]: 11.8 ± 0.56 µM
